Measurements as given in US20230241124A1, “ISOTONIC LIPID EMULSION” (priority 2020, published 2023).
Counter-ions that a name gives are not always drawn.

Test system: cardiac ischemia
Test: dosage study in the monkey model of cardiac ischemia
Format: in vivo
Protocol: This was done in groups of n=8 animals. […] The control groups consisted of sham operated animals undergoing no ischemia, and 2 groups undergoing cardiac ischemia: a saline control (n=8), and a “positive control” group (n=8) treated with Metoprolol tartrate (3 mg/kg), as usually applied to MI patients.

[1] = day 7, positive control 3 mg/kg

**Q.** How did the “NT Pro BNP concentration” value [1] turn out when `COCCc1ccc(OCC(O)CNC(C)C)cc1` (stereo not shown) [Metoprolol tartrate] was run?
**A.** Its value is 45.7 ± 15.4 pg/mL.

**Q.** And the “ratio of infarcted heart area” value [1]?
**A.** Its value is 5.80+/−1.83%.

**Q.** What about the “index of myocardial contractility (−dp/dt)” value (positive control 3 mg/kg) of the same compound?
**A.** Its value is “remained unchanged”.

**Q.** And the “reduction of infarcted area versus saline control” value (positive control 3 mg/kg)?
**A.** Its value is 55%.
